Measured values published in patent US8173392B2, “In vivo incorporation of unnatural amino acids” (The Scripps Research Institute, priority 2001, dated 2012).

How the values were obtained:
SjGST homodimer = assay: photo-activated crosslinking of SjGST (365 nm, SDS-PAGE); design: species or system Schistosoma Japonica; details: long wavelength UV irradiation, 5 minutes
Description: In vivo incorporation of pBpa into GST. […] This protein is a dimer of two identical subunits which have previously been crosslinked non-specifically using gluteraldehyde. The crystal structure of the dimeric Schistosoma Japonica glutathione-S-transferase (SjGST) (McTigue, M. A., Williams, D. R. & Tainer, J. A. Journal of Molecular Biology 246, 21-27 (1995)) was used to identify two sites to substitute with pBp: residue Phe52, which is buried in the dimer interface of the crystal structure, and residue Tyr198 which is solvent exposed. The codons corresponding to Phe52 or Tyr198 in the gene for a 27 kDa protein Sj GST, were replaced with amber codons. The orthogonal synthetase tRNA pair was then used to site specifically incorporate pBpa into SjGST in E. coli at these sites. Upon irradiation with long wavelength ultraviolet radiation, purified SjGST was converted to a covalently linked homodimer as judged by denaturing SDS PAGE. Approximately 70% of the SjGST present was crosslinked in 5 minutes.
Photo-activated crosslinking. Crosslinking reactions were performed in a 96 well microtitre plate (Nuncsorb) using 100 μL of 10 ng/μL SjGST (in 50 mM NaH2Po4, 300 mM NaCl, 250 mM imidazole) at 4° C. Samples were irradiated at 365 nm using a handheld UV lamp (1 SV, 60 Hz, 0.2 A; Spectronics, NY, USA), for 1 min or 5 min. […]

[1] = test system: yeast amber suppressor tRNAPheCUA/phenylalanyl-tRNA synthetase pair; details: cited from earlier work
[2] = test system: cells expressing m-acetyl phenylalanine-incorporated DHFR
Protocol: Cells expressing the “ketone handle”-incorporated DHFR were incubated with fluorescein hydrazide solution. After 36 hours at 4° C. and extensive washes to remove excess fluorescein hydrazide, the labeled DHFR protein was purified and subjected to fluorescence emission tests. As a negative control in parallel, m-methoxy phenylalanine-incorporated DHFR was also purified with the same procedures.

mutant TyrRS (LWJ16) = target: T1, mutant TyrRS (LWJ16) (Methanocaldococcus jannaschii, UniProt Q57834, D158A/E107T/L162P/N268S/Y32Q); assay: pyrophosphate-exchange assay (adenylate formation with ATP); assay type: biochemical, M. jannaschii; details: for Kcat / Km: 37° C., pH7.5
T1 construct: The mutant TyrRS (LWJ16) gene with six histidines at its C-terminus was cloned into plasmid pQE-60; His6 (C); made in house
Protocol: Kinetics of adenylate formation of O-methyl-L-tyrosine and tyrosine with ATP catalyzed by the mutant TyrRS (LWJ16) were analyzed in vitro using a pyrophosphate-exchange assay. The mutant TyrRS (LWJ16) gene with six histidines at its C-terminus was cloned into plasmid pQE-60 (Qiagen, CA) to afford plasmid pQE-mJYRS. Protein was purified by immobilized metal affinity chromatography according to manufacture's protocol (Qiagen, CA). Pyrophosphate (PPi) exchange was carried out at 37° C. in a reaction mixture containing 100 mM Tris HCl (pH7.5), 10 mM KF, 5 mM MgCl2, 2 mM ATP, 2 mM NaPPi, 0.1 mg/mL bovine serum albumin, approximately 0.01 microCi/mL [32P]NaPPi, and various concentrations of tyrosine or O-methyl-L-tyrosine. Reactions were initiated with the addition of the purified mutant TyrRS (LWJ16), and aliquots were periodically taken and quenched with 0.2 M NaPPi, 7% perchloric acid, and 2% activated charcoal. The charcoal was filtered and washed with 10 mM NaPPi (pH2), then measured by scintillation counting to determine the 32P levels in charcoal-adsorbed ATP. Values of kcat and Km were calculated by direct fitting of the Michaelis-Menten equation using nonlinear regression analysis.

E. coli = assay: effect of the amino acid on growth rate of E. coli; assay type: cell-based; details: 1 mM
Protocol: Following the two rounds of selection and DNA shuffling, a clone (mutant TyrRS (LWJ16)) was evolved whose survival in chloramphenicol was dependent on the addition of 1 mM O-methyl-L-tyrosine to the growth media. In the absence of O-methyl-L-tyrosine, cells harboring the mutant TyrRS (LWJ16) were not viable on minimal media plates containing 1% glycerol, 0.3 mM leucine (GMML), and 15 micrograms/mL of chloramphenicol. Cells were able to grow on GMML plates with 125 micrograms/mL chloramphenicol in the presence of 1 mM O-methyl-L-tyrosine. Similar results were obtained in liquid GMML.

[3] = test system: valine positions, mutant ValRS; details: mutant E. coli strain grown in presence of Abu; cited from earlier work
[4] = test system: Asp112TAG codon in the CAT gene; assay: in vivo chloramphenicol acetyltransferase assay (suppression of Asp112TAG codon in CAT gene, pYC-J17); assay type: cell-based, E. coli; details: GMML plates
Protocol: A positive selection was then applied that is based on suppression of an amber stop codon at a nonessential position (Asp112) in the chloramphenicol acetyltransferase (CAT) gene (M. Pastrnak, T. J. Magliery, P. G. Schultz, Helvetica Chimica Acta. 83, 2277-86 (2000)). Cells were grown in media containing the unnatural amino acid and selected for their survival in the presence of various concentration of chloramphenicol. If a mutant TyrRS charges the orthogonal mtRNACUA^Tyr with any amino acid, either natural or unnatural, the cell produces CAT and survives.
The gene encoding mtRNACUA^Tyr under the control of the lpp promoter and rrnC terminator was inserted into plasmid pACMD112TAG (a pACYC184 plasmid with a TAG stop codon replacing Asp112 in its CAT gene (M. Pastrnak, T. J. Magliery, P. G. Schultz, Helvetica Chimica Acta. 83, 2277-86 (2000))) to afford plasmid pYC-J17. Supercoiled DNA encoding the TyrRS library was transformed into E. coli DH10B competent cells containing pYC-J17 to yield a library of size greater than 3×10^9 cfu, ensuring complete coverage of the original library. Cells were then plated on minimal media plates containing 1% glycerol and 0.3 mM leucine (GMML) with 17 micrograms/mL tetracycline(Tet), 25 micrograms/mL kanamycin (Kan), 50 micrograms/mL of chloramphenicol (Cm), and 1 mM unnatural amino acid. […]

[5] = test system: amber codons in T7 RNA polymerase gene driving GFPuv; assay: fluorimetric analysis, T7 RNA polymerase/GFPuv reporter (pREP/YC-JYCUA); assay type: cell-based, E. coli; details: presence versus absence of OAT
Protocol: Construction of a multipurpose reporter plasmid. In order to construct a multipurpose plasmid to be used both for selecting and screening variants of a M. jannaschii TyrRS, plasmid pREP(10) was combined with plasmid pYC-J17 (Wang, L, Brock, A., Herberich, B. & Schultz, P. G., Science, 2001, 292, 498-500) to obtain pREP/YC-JYCUA (FIG. 7b). Plasmid pREP/YC-JYCUA was assayed for function with a compatible plasmid expressing a variant of M. jannaschii TyrRS (pBK-mJYRS; Wang, L, Brock, A., Herberich, B. & Schultz, P. G., Science, 2001, 292, 498-500) selective for incorporating O-Methyl-Tyrosine (OMY).
As described above, the T7 RNA polymerase/GFP system can be used to quantitatively compare the activities of synthetase variants. […] The fluorescence enhancement for cells grown in the presence versus the absence of the unnatural amino acid is thus about 6-fold higher for cells expressing OAT-RS (1) from selection and screening than for cells expressing the OAT-RS clone derived from positive/negative selection using barnase. […] However, the fluorescence enhancement for cells grown in the presence versus the absence of an unnatural amino acid is expected to represent a lower limit for the fidelity of unnatural amino acid incorporation, as competition of unnatural amino acids for being bound by an evolved synthetase variant would reduce binding of natural amino acids. […]

SjGST: Schistosoma Japonica glutathione-S-transferase with pBpa, presumably at Phe52 in the dimer interface
SjGST crosslinked to covalent homodimer (SjGST homodimer): Approximately 70%

N[C@@H](Cc1ccc(F)cc1)C(=O)O [p-F-Phe, p-fluorophenylalanine]
amino acid found at the Phe codon positions [1]: 7% | translation of the mutagenesis site with the amino acid ([1]; excess of p-F-Phe in growth media): 64-75%

NN1C(=O)c2ccccc2C12c1ccc(O)cc1Oc1cc(O)ccc12 [fluorescein hydrazide]
cell permeability [2]: cell-permeable | lysis of cells [2]: does not lyse cells

COc1ccc(C[C@H](N)C(=O)O)cc1 [O-methyl-L-tyrosine]
kcat/Km higher than that of tyrosine (mutant TyrRS (LWJ16)): about 100 fold | Kcat (mutant TyrRS (LWJ16)): 14 ± 1 10 − 3 s − 1 | Km (mutant TyrRS (LWJ16)): 0.443 mM | effect on growth rate of E. coli (E. coli): does not significantly affect the growth rate

N[C@@H](Cc1ccc(O)cc1)C(=O)O [L-tyrosine]
Km higher than that for O-methyl-L-tyrosine (mutant TyrRS (LWJ16)): approximately 13 fold | kcat down relative to that for O-methyl-L-tyrosine (mutant TyrRS (LWJ16)): 8 fold | Kcat (mutant TyrRS (LWJ16)): 1.8 ± 0.2 10 − 3 s − 1 | Km (mutant TyrRS (LWJ16)): 5.83 mM

CCC(N)C(=O)O (centres unmarked) [Abu, aminobutyrate]
valines replaced at each valine position in the native protein [3]: about 24%

B1: mutant TyrRS (LWJ16) (protein, listed as Methanococcus jannaschii)
chain: MDEFEMIKRNTSEIISEEELREVLKKDEKSAQIGFEPSGKIHLGHYLQIKKMIDLQNAGFDIIILLADLHAYLNQKGELDEIRKIGDYNKKVFEAMGLKAKYVYGSTFQLDKDYTLNVYRLALKTTLKRARRSMELIAREDENPKVAEVIYPIMQVNAIHYPGVDVAVGGMEQRKIHMLARELLPKKVVCIHNPVLTGLDGEGKMSSSKGNFIAVDDSPEEIRAKIKKAYCPAGVVEGNPIMEIAKYFLEYPLTIKRPEKFGGDLTVSSYEELESLFKNKELHPMDLKNAVAEELIKILEPIRKRL
chloramphenicol concentration at which cells were not viable ([4]; absence of O-methyl-L-tyrosine): 15 micrograms/mL | chloramphenicol concentration at which cells were able to grow ([4]; presence of 1 mM O-methyl-L-tyrosine): 125 micrograms/mL

B2: OAT-RS (1): O-allyl-tyrosine synthetase clone from positive selection and negative FACS screening (protein, listed as Methanococcus jannaschii)
chain: MDEFEMIKRNTSEIISEEELREVLKKDEKSASIGFEPSGKIHLGHYLQIKKMIDLQNAGFDIIILLADLHAYLNQKGELDEIRKIGDYNKKVFEAMGLKAKYVYGSTFQLDKDYTLNVYRLALKTTLKRARRSMELIAREDENPKVAEVIYPIMQVNTYHYAGVDVAVGGMEQRKIHMLARELLPKKVVCIHNPVLTGLDGEGKMSSSKGNFIAVDDSPEEIRAKIKKAYCPAGVVEGNPIMEIAKYFLEYPLTIKRPEKFGGDLTVNSYEELESLFKNKELHPMDLKNAVAEELIKILEPIRKRL
fluorescence enhancement higher than for OAT-RS clone from positive/negative selection using barnase [5]: about 6 fold
